From patent US12281149B2, “Modulators of G-protein coupled receptors” (priority 2021, dated 2025)
*1 amine or outer side, *2 acyl side, *3 side chain or, on linkers, in order; H or OH if unused. Where a SMILES comes first, the peptide text is derived from it. Side-chain parts run from the residue outwards. [ ]: non-standard residue; d: D form. The star is where a group is joined. Isobutyryl(2-(3-CN-5-F-Ph)) = CC(C)(C(=O)*)c1cc(F)cc(C#N)c1; C20 diacid = O=C(O)CCCCCCCCCCCCCCCCCCC(=O)*; γGlu = O=C(O)[C@H](CCC(=O)[*:2])N[*:1]; X3 = CC(C)(C(=O)*)c1ccc(Cl)cc1; AEEA = NCCOCCOCC(=O)O; Aib = CC(C)(N)C(=O)O; βAla = NCCC(=O)O

Assays:
Format in all cases: cell-based
GLP-1 receptor [1] = biological target: T1, GLP-1 receptor (Homo sapiens, UniProt P43220); assay: HitHunter cAMP assay, GLP-1 receptor; details: for EC50: CHO cells stably expressing human GLP-1 receptor, cAMP accumulation, 30 min, read-out: EC50 GLP-1R; for Emax: CHO cells, cAMP, normalized to maximum signal from GLP-1 (high) and DMSO (low), read-out: Emax GLP-1R
T1 sequence (P43220 24-463): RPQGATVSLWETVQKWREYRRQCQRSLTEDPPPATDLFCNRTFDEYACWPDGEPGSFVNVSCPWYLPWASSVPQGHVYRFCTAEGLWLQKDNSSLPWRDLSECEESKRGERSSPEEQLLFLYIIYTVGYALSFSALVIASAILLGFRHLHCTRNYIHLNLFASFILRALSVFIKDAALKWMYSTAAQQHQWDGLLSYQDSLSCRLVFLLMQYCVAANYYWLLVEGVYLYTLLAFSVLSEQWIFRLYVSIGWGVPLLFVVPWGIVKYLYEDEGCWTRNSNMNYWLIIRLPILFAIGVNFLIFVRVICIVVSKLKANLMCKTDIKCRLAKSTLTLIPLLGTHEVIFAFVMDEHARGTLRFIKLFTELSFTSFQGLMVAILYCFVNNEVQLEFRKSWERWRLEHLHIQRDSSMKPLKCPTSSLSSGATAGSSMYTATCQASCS

GIP receptor [2] = biological target: T2, GIP receptor (Homo sapiens, UniProt P48546); assay: HitHunter cAMP assay, GIP receptor; details: for EC50: CHO cells stably expressing GIP receptor, cAMP accumulation, 30 min, read-out: EC50 GIP-1R; for Emax: CHO cells, cAMP, normalized to maximum signal from GIP (high) and DMSO (low), read-out: Emax GIP-1R
T2 sequence (P48546 22-466): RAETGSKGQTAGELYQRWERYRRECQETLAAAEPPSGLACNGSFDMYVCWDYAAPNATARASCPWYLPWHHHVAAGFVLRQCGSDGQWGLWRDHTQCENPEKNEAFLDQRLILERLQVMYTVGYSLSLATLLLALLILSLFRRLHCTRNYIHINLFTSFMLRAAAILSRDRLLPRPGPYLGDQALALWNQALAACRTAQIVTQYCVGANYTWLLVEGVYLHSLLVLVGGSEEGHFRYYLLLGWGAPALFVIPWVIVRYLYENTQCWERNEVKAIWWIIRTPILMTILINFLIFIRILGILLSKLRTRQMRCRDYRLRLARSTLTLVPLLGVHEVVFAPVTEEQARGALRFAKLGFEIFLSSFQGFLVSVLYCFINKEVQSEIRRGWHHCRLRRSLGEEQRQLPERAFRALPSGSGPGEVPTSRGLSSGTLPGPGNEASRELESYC

GLP-1 receptor [3] = biological target: T1, GLP-1 receptor; assay: PathHunter β-arrestin assay, GLP-1 receptor; design: host or cells: PathHunter CHO-K1 GLP1R β-Arrestin Cell Line; details: β-arrestin-2 recruitment, PathHunter CHO-K1 GLP1R β-Arrestin Cell Line, 90 min at 37° C.; normalized to GLP-1; read-out: GLP-1R β Arrestin EC50
GIP receptor [4] = biological target: T2, GIP receptor; assay: PathHunter β-arrestin assay, GIP receptor; design: host or cells: PathHunter CHO-K1 GIPR β-Arrestin Cell Line; details: β-arrestin-2 recruitment, PathHunter CHO-K1 GIPR β-Arrestin Cell Line, 90 min at 37° C.; normalized to GIP; read-out: GIPR β Arrestin EC50

| SMILES | EC50 (GLP-1 receptor [1]) [nM] | Emax (GLP-1 receptor [1]) [%] | EC50 (GIP receptor [2]) [nM] | Emax (GIP receptor [2]) [%] | EC50 (GLP-1 receptor [3]) [nM] | EC50 (GIP receptor [4]) [nM] |
| --- | --- | --- | --- | --- | --- | --- |
| CC[C@H](C)[C@H](NC(=O)[C@H](CC(C)C)NC(=O)[C@H](Cc1c[nH]c2ccccc12)NC(=O)[C@H](CC(N)=O)NC(=O)[C@@H](NC(=O)[C@H](Cc1ccccc1)NC(=O)[C@H](C)NC(=O)[C@H](CCCCNC(=O)COCCOCCNC(=O)COCCOCCNC(=O)CC[C@H](NC(=O)CCCCCCCCCCCCCCCCCCC(=O)O)C(=O)O)NC(=O)[C@H](CCC(N)=O)NC(=O)[C@H](C)NC(=O)[C@@H](NC(=O)[C@H](CCCCN)NC(=O)[C@H](CC(=O)O)NC(=O)[C@H](CC(C)C)NC(=O)C(C)(C)NC(=O)[C@@H](NC(=O)[C@H](CO)NC(=O)[C@H](Cc1ccc(O)cc1)NC(=O)[C@H](CC(=O)O)NC(=O)[C@H](CO)NC(=O)[C@@H](NC(=O)[C@H](Cc1ccccc1)NC(=O)[C@@H](NC(=O)CNC(=O)[C@H](CCC(=O)O)NC(=O)CCNC(=O)C(C)(C)c1cc(F)cc(C#N)c1)[C@@H](C)O)[C@@H](C)O)[C@@H](C)CC)[C@@H](C)CC)C(C)C)C(=O)N[C@@H](C)C(=O)NCC(=O)NCC(=O)N1CCC[C@H]1C(=O)N[C@@H](CO)C(=O)N[C@@H](CO)C(=O)NCC(=O)N[C@@H](C)C(=O)N1CCC[C@H]1C(=O)N1CCC[C@H]1C(=O)N1CCC[C@H]1C(=O)N[C@@H](CO)C(N)=O [Compound 182] ({Isobutyryl(2-(3-CN-5-F-Ph))-βAla}-EGTFTSDYSI[Aib]LDKIAQK([AEEA-AEEA-γGlu-C20 diacid])AFVNWLIAGGPSSGAPPPS-NH2) | 0.1 to 1 | 96 | 10 to 100 | 98 | > 1000 | < 1000 |
| CC[C@H](C)[C@H](NC(=O)[C@H](CC(C)C)NC(=O)[C@H](Cc1c[nH]c2ccccc12)NC(=O)[C@H](CCC(N)=O)NC(=O)[C@@H](NC(=O)[C@H](Cc1ccccc1)NC(=O)[C@H](C)NC(=O)[C@H](CCCCNC(=O)COCCOCCNC(=O)COCCOCCNC(=O)CC[C@H](NC(=O)CCCCCCCCCCCCCCCCCCC(=O)O)C(=O)O)NC(=O)[C@H](C)NC(=O)[C@H](C)NC(=O)[C@@H](NC(=O)[C@H](CCCCN)NC(=O)[C@H](CC(=O)O)NC(=O)[C@H](CC(C)C)NC(=O)C(C)(C)NC(=O)[C@@H](NC(=O)[C@H](CO)NC(=O)[C@H](Cc1ccc(O)cc1)NC(=O)[C@H](CC(=O)O)NC(=O)[C@H](CO)NC(=O)[C@@H](NC(=O)[C@H](Cc1ccccc1)NC(=O)[C@@H](NC(=O)CNC(=O)[C@H](CCC(=O)O)NC(=O)CCNC(=O)C(C)(C)c1cc(F)cc(C#N)c1)[C@@H](C)O)[C@@H](C)O)[C@@H](C)CC)[C@@H](C)CC)C(C)C)C(=O)N[C@@H](C)C(=O)NCC(=O)NCC(=O)N1CCC[C@H]1C(=O)N[C@@H](CO)C(=O)N[C@@H](CO)C(=O)NCC(=O)N[C@@H](C)C(=O)N1CCC[C@H]1C(=O)N1CCC[C@H]1C(=O)N1CCC[C@H]1C(=O)N[C@@H](CO)C(N)=O [Compound 183] ({Isobutyryl(2-(3-CN-5-F-Ph))-βAla}-EGTFTSDYSI[Aib]LDKIAAK([AEEA-AEEA-γGlu-C20 diacid])AFVQWLIAGGPSSGAPPPS-NH2) | 0.1 to 1 | 96 | 10 to 100 | 95 | > 1000 | > 1000 |
| CC[C@H](C)[C@H](NC(=O)[C@H](CO)NC(=O)[C@H](Cc1ccc(O)cc1)NC(=O)[C@H](CC(=O)O)NC(=O)[C@H](CO)NC(=O)[C@@H](NC(=O)[C@H](Cc1ccccc1)NC(=O)[C@@H](NC(=O)CNC(=O)[C@H](CCC(=O)O)NC(=O)CCNC(=O)C(C)(C)c1cc(F)cc(C#N)c1)[C@@H](C)O)[C@@H](C)O)C(=O)N[C@@H](Cc1ccc(O)cc1)C(=O)N[C@@H](CC(C)C)C(=O)N[C@@H](CC(=O)O)C(=O)N[C@@H](CCCCN)C(=O)N[C@@H](CCC(N)=O)C(=O)N[C@@H](C)C(=O)N[C@@H](C)C(=O)N[C@@H](CCCCNC(=O)COCCOCCNC(=O)COCCOCCNC(=O)CC[C@H](NC(=O)CCCCCCCCCCCCCCCCCCC(=O)O)C(=O)O)C(=O)N[C@@H](CCC(=O)O)C(=O)N[C@@H](Cc1ccccc1)C(=O)N[C@H](C(=O)N[C@@H](CC(N)=O)C(=O)N[C@@H](Cc1c[nH]c2ccccc12)C(=O)N[C@@H](CC(C)C)C(=O)N[C@@H](CC(C)C)C(=O)N[C@@H](C)C(=O)NCC(=O)NCC(=O)N1CCC[C@H]1C(=O)N[C@@H](CO)C(=O)N[C@@H](CO)C(=O)NCC(=O)N[C@@H](C)C(=O)N1CCC[C@H]1C(=O)N1CCC[C@H]1C(=O)N1CCC[C@H]1C(=O)N[C@@H](CO)C(N)=O)C(C)C [Compound 184] | 1 to 10 | 99 | 100 to 1000 | 90 | > 1000 | > 1000 |
| CC[C@H](C)[C@H](NC(=O)[C@H](CC(C)C)NC(=O)[C@H](Cc1c[nH]c2ccccc12)NC(=O)[C@H](CCC(N)=O)NC(=O)[C@@H](NC(=O)[C@H](Cc1ccccc1)NC(=O)[C@H](C)NC(=O)[C@H](CCCCNC(=O)COCCOCCNC(=O)COCCOCCNC(=O)CC[C@H](NC(=O)CCCCCCCCCCCCCCCCCCC(=O)O)C(=O)O)NC(=O)[C@H](CCC(N)=O)NC(=O)[C@H](C)NC(=O)[C@@H](NC(=O)[C@H](CCCCN)NC(=O)[C@H](CC(=O)O)NC(=O)[C@H](CC(C)C)NC(=O)C(C)(C)NC(=O)[C@@H](NC(=O)[C@H](CO)NC(=O)[C@H](Cc1ccc(O)cc1)NC(=O)[C@H](CC(=O)O)NC(=O)[C@H](CO)NC(=O)[C@@H](NC(=O)[C@H](Cc1ccccc1)NC(=O)[C@@H](NC(=O)CNC(=O)[C@H](CCC(=O)O)NC(=O)CCNC(=O)C(C)(C)c1ccc(Cl)cc1)[C@@H](C)O)[C@@H](C)O)[C@@H](C)CC)[C@@H](C)CC)C(C)C)C(=O)N[C@@H](C)C(=O)NCC(=O)NCC(=O)N1CCC[C@H]1C(=O)N[C@@H](CO)C(=O)N[C@@H](CO)C(=O)NCC(=O)N[C@@H](C)C(=O)N1CCC[C@H]1C(=O)N1CCC[C@H]1C(=O)N1CCC[C@H]1C(=O)N[C@@H](CO)C(N)=O [Compound 185] ({X3-βAla}-EGTFTSDYSI[Aib]LDKIAQK([AEEA-AEEA-γGlu-C20 diacid])AFVQWLIAGGPSSGAPPPS-NH2) | 0.1 to 1 | 101 | 10 to 100 | 95 | < 1000 | > 1000 |
| CC[C@H](C)[C@H](NC(=O)[C@H](CC(C)C)NC(=O)[C@H](Cc1c[nH]c2ccccc12)NC(=O)[C@H](CCC(N)=O)NC(=O)[C@@H](NC(=O)[C@H](Cc1ccccc1)NC(=O)[C@H](C)NC(=O)[C@H](CCCCNC(=O)COCCOCCNC(=O)COCCOCCNC(=O)CC[C@H](NC(=O)CCCCCCCCCCCCCCCCCCC(=O)O)C(=O)O)NC(=O)[C@H](CCC(N)=O)NC(=O)[C@H](C)NC(=O)[C@H](CCC(N)=O)NC(=O)[C@H](CCCCN)NC(=O)[C@H](CC(=O)O)NC(=O)[C@H](CC(C)C)NC(=O)C(C)(C)NC(=O)[C@@H](NC(=O)[C@H](CO)NC(=O)[C@H](Cc1ccc(O)cc1)NC(=O)[C@H](CC(=O)O)NC(=O)[C@H](CO)NC(=O)[C@@H](NC(=O)[C@H](Cc1ccccc1)NC(=O)[C@@H](NC(=O)CNC(=O)[C@H](CCC(=O)O)NC(=O)CCNC(=O)C(C)(C)c1cc(F)cc(C#N)c1)[C@@H](C)O)[C@@H](C)O)[C@@H](C)CC)C(C)C)C(=O)N[C@@H](C)C(=O)NCC(=O)NCC(=O)N1CCC[C@H]1C(=O)N[C@@H](CO)C(=O)N[C@@H](CO)C(=O)NCC(=O)N[C@@H](C)C(=O)N1CCC[C@H]1C(=O)N1CCC[C@H]1C(=O)N1CCC[C@H]1C(=O)N[C@@H](CO)C(N)=O [Compound 186] ({Isobutyryl(2-(3-CN-5-F-Ph))-βAla}-EGTFTSDYSI[Aib]LDKQAQK([AEEA-AEEA-γGlu-C20 diacid])AFVQWLIAGGPSSGAPPPS-NH2) | 0.1 to 1 | 99 | 10 to 100 | 100 | > 1000 | > 1000 |
